Laboratory results published in EP0326329B1, “Quinazoline derivatives useful as insecticides” (Dow AgroSciences LLC, priority 1988, dated 1989).

Key:
Format in all cases: in vivo
[1] = tested on: Erysiphe graminis tritici (powdery mildew); assay: Greenhouse Test 1, foliar spray fungicide screen (POWD MDEW), host wheat; conditions: disease control rating, 400 ppm (+++ at 100 ppm)
[2] = tested on: Pyricularia oryzae (rice blast); conditions: disease control rating, foliar spray, host rice; 400 ppm (+++ at 100 ppm)
[3] = tested on: Puccinia recondita tritici (leaf rust); assay: Greenhouse Test 1, foliar spray fungicide screen (LEAF RUST), host wheat; conditions: disease control rating, 400 ppm (+++ at 100 ppm)
[4] = tested on: Botrytis cinerea (gray mold); assay: Greenhouse Test 1, foliar spray fungicide screen (GRAY MOLD), host grape berries; conditions: disease control rating, 400 ppm (+++ at 100 ppm)
[5] = tested on: Pseudoperonospora cubensis (downy mildew); assay: Greenhouse Test 1, foliar spray fungicide screen (DOWN MDEW), host squash; conditions: disease control rating, 400 ppm (+++ at 100 ppm)
[6] = tested on: Southern corn rootworm (Diabrotica undecimpuctata howardi Barber); assay: Mite/insect screen, soil treatment (CRW); conditions: percent mortality, soil treatment; for mortality at 12 ppm / mortality at 24 ppm: Diabrotica, read-out: CRW RESULTS %; for mortality at 24 ppm: CRW rate 24.00 ppm
Protocol: (§1) The compounds of Examples 1-203 were tested for miticidal and insecticidal activity in the following mite/insect screen.
(§2) Each test compound was formulated by dissolving the compound in acetone/alcohol (50:50) mixture containing 23 g of "TOXIMUL R" (sulfonate/nonionic emulsifier blend) and 13 g of "TOXIMUL S" (sulfonate/nonionic emulsifier blend) per liter. These mixtures were then diluted with water to give the indicated concentrations.
Activity on Southern corn rootworm (Diabrotica undecimpuctata howardi Barber) was evaluated by adding two ml of tap water, a presoaked corn seed, and 15 g of dry sandy soil to a one ounce plastic container. The soil was treated with 1 mL of test solution containing a pre-determined concentration of test compound. After six to 12 hours of drying, five 2-3 instar corn rootworm larvae were added to the individual cups, which were then capped and held at 23°C.
(§3) After standard exposure periods, percent mortality and phytotoxicity were evaluated. […]

[7] = tested on: southern armyworm (Spodopetra eridania Cramer); assay: Mite/insect screen, sprayed squash leaves (SAW); conditions: percent mortality; for mortality at 200 ppm / mortality at 400 ppm: Spodoptera eridania, read-out: SAW RESULTS %
Protocol: as §1, §2
(§4) Other plants in the same treatment pot were left uninfested. The leaves were then sprayed with 5 ml of test solution using a DeVilbiss atomizing sprayer at 10 psi. Both surfaces of the leaves were covered until runoff, and then allowed to dry for one hour. Two uninfested leaves were then excised and placed into a Petri dish containing larval southern armyworm (Spodopetra eridania Cramer).
as §3

[8] = tested on: Twospotted spider mites (Tetranychus urticae Koch); assay: Mite/insect screen, sprayed squash cotyledons (SM); conditions: percent mortality; for mortality at 200 ppm / mortality at 400 ppm: Tetranychus urticae, read-out: SM RESULTS %; for mortality at 400 ppm: spray rate 400 ppm
Protocol: as §1, §2, §4, §3

[9] = tested on: melon aphids (Aphis gossypii Glover); assay: Mite/insect screen, sprayed squash cotyledons (MA); conditions: percent mortality; for mortality at 200 ppm / mortality at 400 ppm: Aphis gossypii, read-out: MA RESULTS %; for mortality at 400 ppm: spray rate 400 ppm
Protocol: as §1, §2, §4, §3

Row | SMILES | POWD MDEW [1] | RICE BLAST [2] | LEAF RUST [3] | GRAY MOLD [4] | DOWN MDEW [5] | mortality at 12 ppm ([6]; CRW rate 12.00 ppm) [%] | mortality at 24 ppm [6] [%] | mortality at 200 ppm ([7]; spray rate 200 ppm) [%] | mortality at 400 ppm ([7]; spray rate 400 ppm) [%] | mortality at 200 ppm ([8]; spray rate 200 ppm) [%] | mortality at 400 ppm [8] [%] | mortality at 200 ppm ([9]; spray rate 200 ppm) [%] | mortality at 400 ppm [9] [%] | CRW RESULTS % ([6]; CRW rate 12.00 ppm) [%] | SAW RESULTS % ([7]; spray rate 200 ppm) [%] | SM RESULTS % ([8]; spray rate 200 ppm) [%] | MA RESULTS % ([9]; spray rate 200 ppm) [%] | SAW RESULTS % ([7]; spray rate 400 ppm) [%]
1 | CC(C)(C)c1ccc(CCCc2ncnc3ccccc23)cc1 [Example 127, 4-[3-[4-(1,1-dimethylethyl)phenyl]propyl]quinazoline] | +++ (+++ = 90-100% control at 100 ppm) | +++ (+++ = 90-100% control at 100 ppm) | ++ (++ = 90-100% control at 400 ppm) | - (- = 0-19% control at 400 ppm) | +++ (+++ = 90-100% control at 100 ppm) | 0 | 0 | 0 | 0 | 100 | 100 | 100 | 100 |  |  |  |  | 
2 | CC(C)c1ccc(CCNc2ncnc3ccc(Br)cc23)cc1 [Example 79, 6-bromo-N-[2-[4-(i-propyl)phenyl]ethyl]-4-quinazolinamine] | + (+ = 20-89% control at 400 ppm) | +++ (+++ = 90-100% control at 100 ppm) | ++ (++ = 90-100% control at 400 ppm) | - (- = 0-19% control at 400 ppm) | +++ (+++ = 90-100% control at 100 ppm) | 0 | 0 | 0 | 0 | 50 | 0 | 50 | 0 |  |  |  |  | 
3 | CC(C)c1ccc(CCOc2ncnc3c(F)cccc23)cc1 [Example 16, 8-fluoro-4-[2-[4-(i-propyl)phenyl]ethoxy]-quinazoline] | +++ (+++ = 90-100% control at 100 ppm) | +++ (+++ = 90-100% control at 100 ppm) | +++ (+++ = 90-100% control at 100 ppm) | - (- = 0-19% control at 400 ppm) | +++ (+++ = 90-100% control at 100 ppm) |  | 0 |  | 0 |  | 0 |  | 0 |  |  |  |  | 
4 | FC(F)(F)c1cccc(CCOc2ncnc3ccccc23)c1 [Example 51, 4-[2-[3-(trifluoromethyl)phenyl]ethoxy]quinazoline] | ++ (++ = 90-100% control at 400 ppm) | +++ (+++ = 90-100% control at 100 ppm) | ++ (++ = 90-100% control at 400 ppm) | - (- = 0-19% control at 400 ppm) | +++ (+++ = 90-100% control at 100 ppm) |  | 0 |  | 0 |  | 0 |  | 0 |  |  |  |  | 
5 | c1ccc(-c2cccc(CCOc3ncnc4ccccc34)c2)cc1 [Example 173, 4-[2-(1,1'-biphenyl)-3-ylethoxy]quinazoline] | ++ (++ = 90-100% control at 400 ppm) | +++ (+++ = 90-100% control at 100 ppm) | + (+ = 20-89% control at 400 ppm) | - (- = 0-19% control at 400 ppm) | + (+ = 20-89% control at 400 ppm) | 0 | 0 | 0 | 0 | 0 | 0 | 80 | 0 |  |  |  |  | 
6 | Fc1cccc2c(NCC(c3ccccc3)c3ccccc3)ncnc12 [Example 61, N-(2,2-diphenylethyl)-8-fluoro-4-quinazolinamine] | - (- = 0-19% control at 400 ppm) | - (- = 0-19% control at 400 ppm) | - (- = 0-19% control at 400 ppm) | - (- = 0-19% control at 400 ppm) | - (- = 0-19% control at 400 ppm) | 0 | 0 | 0 | 0 | 0 | 0 | 0 | 0 | 0 | 0 | 0 | 0 | 
7 | c1ccc2cc(CCNc3nc(NCCc4ccc5ccccc5c4)c4ccccc4n3)ccc2c1 [Example 32, N,N'-bis[2-(2-naphthyl)ethyl]-2,4-quinazolinediamine] | - (- = 0-19% control at 400 ppm) | - (- = 0-19% control at 400 ppm) | - (- = 0-19% control at 400 ppm) | - (- = 0-19% control at 400 ppm) | + (+ = 20-89% control at 400 ppm) | 0 | 0 | 0 | 0 | 0 | 0 | 0 | 0 |  |  |  |  | 
8 | Cc1ccc2ncnc(NCCc3cccc(Oc4ccccc4)c3)c2c1 [Example 190, 6-methyl-N-[2-(3-phenoxyphenyl)ethyl]-4-quinazolinamine] | +++ (+++ = 90-100% control at 100 ppm) | +++ (+++ = 90-100% control at 100 ppm) | +++ (+++ = 90-100% control at 100 ppm) | - (- = 0-19% control at 400 ppm) | +++ (+++ = 90-100% control at 100 ppm) | 0 | 0 | 0 | 0 | 80 | 0 | 40 | 0 |  |  |  |  | 
9 | C=CC(CCOc1ncnc2ccccc12)CCc1ccccc1 (centres unmarked) [Example 130, 4-[3-ethenyl-5-phenyl-pentyloxy]quinazoline] | + (+ = 20-89% control at 400 ppm) | - (- = 0-19% control at 400 ppm) | - (- = 0-19% control at 400 ppm) | - (- = 0-19% control at 400 ppm) | - (- = 0-19% control at 400 ppm) | 0 | 0 | 0 | 0 | 80 | 70 | 80 | 100 |  |  |  |  | 
10 | Fc1cccc2c(OCCc3ccc(-c4ccccc4)cc3)ncnc12 [Example 116, 8-fluoro-4-[2-(1,1'-biphenyl)-4-ylethoxy]quinazoline] | ++ (++ = 90-100% control at 400 ppm) | +++ (+++ = 90-100% control at 100 ppm) | + (+ = 20-89% control at 400 ppm) | - (- = 0-19% control at 400 ppm) | +++ (+++ = 90-100% control at 100 ppm) | 0 | 0 |  |  |  | 0 |  | 0 |  | 0 |  |  | 0
11 | c1ccc2c(c1)Cc1cc(CCOc3ncnc4ccccc34)ccc1-2 [Example 20, 4-[2-(9H-fluoren-2-yl)ethoxy]quinazoline] | ++ (++ = 90-100% control at 400 ppm) | ++ (++ = 90-100% control at 400 ppm) | + (+ = 20-89% control at 400 ppm) |  | + (+ = 20-89% control at 400 ppm) |  | 100 |  | 60 |  | 100 |  | 100 |  |  |  |  | 
12 | FC(F)(F)c1ccc(CCOc2ncnc3ccccc23)cc1 [Example 134, 4-[2-[4-(trifluoromethyl)phenyl]ethoxy]quinazoline] | +++ (+++ = 90-100% control at 100 ppm) | +++ (+++ = 90-100% control at 100 ppm) | +++ (+++ = 90-100% control at 100 ppm) |  |  | 0 | 0 | 60 | 100 | 90 | 100 | 100 | 100 |  |  |  |  | 
